pIC50: −log10 of the molar value.
Legend:
PI3Kγ = target: T1, PI3Kγ (Homo sapiens, UniProt P48736); assay: PI3Kγ cellular assay in THP-1 cells (AKT pS473 AlphaLISA); assay type: cell-based; conditions: Table 2, rhMCP-1 stimulated AKT pS473, read-out: cellular potency (PI3Kγ IC50)
T1 construct: host or cells: THP-1
Method in brief: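 Serum-starved THP-1 cells (1.8×10^5/well, serum-free DMEM) treated with compounds from 4 nM to 30 μM in 2% DMSO, then stimulated and lysed.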

PI3Kγ (p120γ) = target: T2, PI3Kγ (p120γ) (Homo sapiens, UniProt P48736); assay: Inhibition of PI3K kinase activity (ADP Glo), PI3Kγ; conditions: Table 2, p120γ, read-out: biochemical potency (PI3Kγ IC50)
T2 construct: purchased Promega V1761
Method in brief: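 Recombinant p120γ (8 nM, 2× stock) was preincubated with compound for 1 h at rt in HEPES pH 7.4, NaCl, MgCl2 and 0.05% BSA. Reaction was started with PIP2 (0.1 mg/ml, 2×) and ATP (50 μM, 2×) and ran 60 min at rt. ADP formed was read by ADP-Glo luminescence, and IC50 came from a 4-parameter fit.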

T1 sequence (P48736 whole entry): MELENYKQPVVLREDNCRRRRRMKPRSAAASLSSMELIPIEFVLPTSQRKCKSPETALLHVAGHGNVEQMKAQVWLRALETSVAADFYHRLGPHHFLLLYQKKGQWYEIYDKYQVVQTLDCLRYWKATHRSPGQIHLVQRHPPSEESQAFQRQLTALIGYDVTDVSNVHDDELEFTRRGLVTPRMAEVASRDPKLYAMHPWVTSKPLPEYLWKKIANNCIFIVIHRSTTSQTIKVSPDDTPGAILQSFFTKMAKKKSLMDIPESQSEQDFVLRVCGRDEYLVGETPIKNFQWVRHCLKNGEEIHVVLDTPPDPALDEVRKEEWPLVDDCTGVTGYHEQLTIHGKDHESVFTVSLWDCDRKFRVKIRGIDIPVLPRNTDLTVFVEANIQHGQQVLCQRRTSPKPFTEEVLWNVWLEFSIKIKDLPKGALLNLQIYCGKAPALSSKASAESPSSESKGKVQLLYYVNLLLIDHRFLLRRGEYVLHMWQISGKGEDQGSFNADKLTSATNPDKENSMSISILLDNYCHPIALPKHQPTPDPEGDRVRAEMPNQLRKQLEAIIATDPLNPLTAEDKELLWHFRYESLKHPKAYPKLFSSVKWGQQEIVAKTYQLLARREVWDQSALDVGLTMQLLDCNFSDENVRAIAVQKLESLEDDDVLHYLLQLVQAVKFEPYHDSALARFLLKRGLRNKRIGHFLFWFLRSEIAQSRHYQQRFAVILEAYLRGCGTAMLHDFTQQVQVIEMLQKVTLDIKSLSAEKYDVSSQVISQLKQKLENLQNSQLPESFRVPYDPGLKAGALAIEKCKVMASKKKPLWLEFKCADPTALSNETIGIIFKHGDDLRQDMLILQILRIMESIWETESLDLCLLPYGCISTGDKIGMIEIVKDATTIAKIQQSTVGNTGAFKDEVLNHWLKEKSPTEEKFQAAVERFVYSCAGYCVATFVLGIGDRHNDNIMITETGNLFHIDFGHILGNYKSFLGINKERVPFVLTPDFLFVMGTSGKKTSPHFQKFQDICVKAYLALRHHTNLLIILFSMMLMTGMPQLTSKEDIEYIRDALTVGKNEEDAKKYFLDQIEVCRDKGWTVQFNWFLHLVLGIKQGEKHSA
T2 sequence (P48736 whole entry): as above

pIC50 (PI3Kγ)	pIC50 (PI3Kγ (p120γ))	Structure (SMILES)
6.00 to 7.00	> 7.00	Cc1cc(-c2ccn3nc(N)c(C(=O)NCC(N)=O)c3n2)cc2c1C(=O)N([C@@H](C)C1CC1)C2 [Example 236]
6.00 to 7.00	> 7.00	Cc1cc(-c2ccn3nc(N)c(C(=O)N[C@@H](CO)C(C)(C)C)c3n2)cc2c1C(=O)N([C@@H](C)C1CC1)C2 [Example 237]
6.00 to 7.00	> 7.00	Cc1cc(-c2ccn3nc(N)c(C(=O)NC[C@@H]4CCOC4)c3n2)cc2c1C(=O)N([C@@H](C)C1CC1)C2 [Example 238]
6.00 to 7.00	> 7.00	Cc1cc(-c2ccn3nc(N)c(C(=O)N[C@H]4CC[C@@H](O)C4)c3n2)cc2c1C(=O)N([C@@H](C)C1CC1)C2 [Example 239]
6.00 to 7.00	> 7.00	Cc1cc(-c2ccn3nc(N)c(C(=O)N[C@@H]4c5ccccc5C[C@@H]4O)c3n2)cc2c1C(=O)N([C@@H](C)C1CC1)C2 [Example 240]
6.00 to 7.00	> 7.00	Cc1cc(-c2ccn3nc(N)c(C(=O)NC4CS(=O)(=O)C4)c3n2)cc2c1C(=O)N([C@@H](C)C1CC1)C2 [Example 241]
6.00 to 7.00	> 7.00	Cc1cc(-c2ccn3nc(N)c(C(=O)NC4(C)CC4)c3n2)cc2c1C(=O)N([C@@H](C)C1CC1)C2 [Example 242]
6.00 to 7.00	> 7.00	Cc1cc(-c2ccn3nc(N)c(C(=O)N[C@H]4CCCNC4)c3n2)cc2c1C(=O)N([C@@H](C)C1CC1)C2 [Example 243]
6.00 to 7.00	> 7.00	Cc1cc(-c2ccn3nc(N)c(C(=O)N[C@H]4CCC[C@H](O)C4)c3n2)cc2c1C(=O)N([C@@H](C)C1CC1)C2 [Example 244]
6.00 to 7.00	> 7.00	Cc1cc(-c2ccn3nc(N)c(C(=O)N[C@@H](C(N)=O)c4ccccc4)c3n2)cc2c1C(=O)N([C@@H](C)C1CC1)C2 [Example 245]
6.00 to 7.00	> 7.00	Cc1cc(-c2ccn3nc(N)c(C(=O)NC4(CO)CC4)c3n2)cc2c1C(=O)N([C@@H](C)C1CC1)C2 [Example 246]
6.00 to 7.00	> 7.00	Cc1cc(-c2ccn3nc(N)c(C(=O)NC4(C(N)=O)CC4)c3n2)cc2c1C(=O)N([C@@H](C)C1CC1)C2 [Example 247]
6.00 to 7.00	> 7.00	Cc1cc(-c2ccn3nc(N)c(C(=O)NC(C)(C)c4ccncc4)c3n2)cc2c1C(=O)N([C@@H](C)C1CC1)C2 [Example 248]
6.00 to 7.00	> 7.00	Cc1cc(-c2ccn3nc(N)c(C(=O)NC4CC4(C)C)c3n2)cc2c1C(=O)N([C@@H](C)C1CC1)C2 (stereo partly shown) [Example 249]
6.00 to 7.00	> 7.00	Cc1cc(-c2ccn3nc(N)c(C(=O)NCC4(CO)CC4)c3n2)cc2c1C(=O)N([C@@H](C)C1CC1)C2 [Example 250]
6.00 to 7.00	> 7.00	Cc1cc(-c2ccn3nc(N)c(C(=O)N4CC(O)C4)c3n2)cc2c1C(=O)N(C(C)C1CC1)C2 (stereo not shown) [Example 251]
6.00 to 7.00	> 7.00	Cc1cc(-c2ccn3nc(N)c(C(=O)NC(C)C)c3n2)cc2c1C(=O)N([C@@H](C)C1CC1)C2 [Example 252]
6.00 to 7.00	> 7.00	Cc1cc(-c2ccn3nc(N)c(C(=O)NC4(C(C)O)CC4)c3n2)cc2c1C(=O)N([C@@H](C)C1CC1)C2 (stereo partly shown) [Example 253]
6.00 to 7.00	> 7.00	Cc1cc(-c2ccn3nc(N)c(C(=O)N[C@H]4CCCC[C@@H]4O)c3n2)cc2c1C(=O)N([C@@H](C)C1CC1)C2 [Example 254]
6.00 to 7.00	> 7.00	Cc1cc(-c2ccn3nc(N)c(C(=O)NC4(C#N)CCC4)c3n2)cc2c1C(=O)N([C@@H](C)C1CC1)C2 [Example 255]
6.00 to 7.00	> 7.00	Cc1cc(-c2ccn3nc(N)c(C(=O)NCC4(C#N)CC4)c3n2)cc2c1C(=O)N([C@@H](C)C1CC1)C2 [Example 256]
6.00 to 7.00	> 7.00	Cc1cc(-c2ccn3nc(N)c(C(=O)NC[C@H]4CCOC4)c3n2)cc2c1C(=O)N([C@@H](C)C1CC1)C2 [Example 257]
6.00 to 7.00	> 7.00	Cc1cc(-c2ccn3nc(N)c(C(=O)NC4CC(F)(F)C4)c3n2)cc2c1C(=O)N([C@@H](C)C1CC1)C2 [Example 258]
6.00 to 7.00	> 7.00	Cc1cc(-c2ccn3nc(N)c(C(=O)NC4COCc5ccccc54)c3n2)cc2c1C(=O)N([C@@H](C)C1CC1)C2 (stereo partly shown) [Example 259]
6.00 to 7.00	> 7.00	Cc1cc(-c2ccn3nc(N)c(C(=O)NCCC#N)c3n2)cc2c1C(=O)N([C@@H](C)C1CC1)C2 [Example 260]
6.00 to 7.00	> 7.00	Cc1cc(-c2ccn3nc(N)c(C(=O)N[C@H]4CCOc5ccccc54)c3n2)cc2c1C(=O)N([C@@H](C)C1CC1)C2 [Example 261]
6.00 to 7.00	> 7.00	Cc1cc(-c2ccn3nc(N)c(C(=O)NC4(C(F)(F)F)CC4)c3n2)cc2c1C(=O)N([C@@H](C)C1CC1)C2 [Example 262]

pIC50 (PI3Kγ)	pIC50 (PI3Kγ (p120γ))	Structure (SMILES)
6.00 to 7.00	> 7.00	Cc1cc(-c2ccn3nc(N)c(C(=O)N[C@@H]4C[C@@H]4F)c3n2)cc2c1C(=O)N([C@@H](C)C1CC1)C2 [Example 263]
6.00 to 7.00	> 7.00	Cc1cc(-c2ccn3nc(N)c(C(=O)N[C@H]4CCC[C@H]4O)c3n2)cc2c1C(=O)N([C@@H](C)C1CC1)C2 [Example 264]
< 6.00	> 7.00	Cc1cc(-c2ccn3nc(N)c(C(=O)N[C@H]4Cc5ccccc5[C@@H]4O)c3n2)cc2c1C(=O)N([C@@H](C)C1CC1)C2 [Example 265]
< 6.00	> 7.00	Cc1cc(-c2ccn3nc(N)c(C(=O)NC4CNC4)c3n2)cc2c1C(=O)N([C@@H](C)C1CC1)C2 [Example 266]
6.00 to 7.00	> 7.00	Cc1cc(-c2ccn3nc(N)c(C(=O)N[C@@H](CO)CC(C)C)c3n2)cc2c1C(=O)N([C@@H](C)C1CC1)C2 [Example 267]
6.00 to 7.00	> 7.00	Cc1cc(-c2ccn3nc(N)c(C(=O)NC4(C#N)CC4)c3n2)cc2c1C(=O)N([C@@H](C)C1CC1)C2 [Example 268]
6.00 to 7.00	> 7.00	Cc1cc(-c2ccn3nc(N)c(C(=O)NC[C@H]4CCCO4)c3n2)cc2c1C(=O)N([C@@H](C)C1CC1)C2 [Example 269]
6.00 to 7.00	> 7.00	Cc1cc(-c2ccn3nc(N)c(C(=O)N4CC(C(C)(C)O)C4)c3n2)cc2c1C(=O)N(C(C)C1CC1)C2 (stereo not shown) [Example 270]
6.00 to 7.00	> 7.00	Cc1cc(-c2ccn3nc(N)c(C(=O)NC[C@@H]4CCC(=O)N4)c3n2)cc2c1C(=O)N([C@@H](C)C1CC1)C2 [Example 271]
< 6.00	> 7.00	Cc1cc(-c2ccn3nc(N)c(C(=O)N[C@H]4c5ccccc5C[C@@H]4O)c3n2)cc2c1C(=O)N([C@@H](C)C1CC1)C2 [Example 272]
6.00 to 7.00	> 7.00	Cc1cc(-c2ccn3nc(N)c(C(=O)N[C@H]4CC[C@@H](N)CC4)c3n2)cc2c1C(=O)N([C@@H](C)C1CC1)C2 [Example 273]
6.00 to 7.00	> 7.00	Cc1cc(-c2ccn3nc(N)c(C(=O)N4CCC4CO)c3n2)cc2c1C(=O)N(C(C)C1CC1)C2 (stereo not shown) [Example 274]
6.00 to 7.00	> 7.00	Cc1cc(-c2ccn3nc(N)c(C(=O)N[C@H]4CCCC[C@H]4O)c3n2)cc2c1C(=O)N([C@@H](C)C1CC1)C2 [Example 275]
6.00 to 7.00	> 7.00	Cc1cc(-c2ccn3nc(N)c(C(=O)NC[C@H]4CNC(=O)C4)c3n2)cc2c1C(=O)N([C@@H](C)C1CC1)C2 [Example 276]
6.00 to 7.00	> 7.00	Cc1cc(-c2ccn3nc(N)c(C(=O)NC4CC45CC5)c3n2)cc2c1C(=O)N([C@@H](C)C1CC1)C2 (stereo partly shown) [Example 277]
< 6.00	> 7.00	Cc1cc(-c2ccn3nc(N)c(C(=O)N[C@H](C)C4CC4)c3n2)cc2c1C(=O)N([C@@H](C)C1CC1)C2 [Example 278]
< 6.00	> 7.00	Cc1cc(-c2ccn3nc(N)c(C(=O)NCC(=O)Nc4ccccc4)c3n2)cc2c1C(=O)N([C@@H](C)C1CC1)C2 [Example 279]
< 6.00	> 7.00	Cc1cc(-c2ccn3nc(N)c(C(=O)N4CCOCC4)c3n2)cc2c1C(=O)N(C(C)C1CC1)C2 (stereo not shown) [Example 280]
< 6.00	> 7.00	Cc1cc(-c2ccn3nc(N)c(C(=O)NC4(c5ccccc5)CC4)c3n2)cc2c1C(=O)N([C@@H](C)C1CC1)C2 [Example 281]
6.00 to 7.00	> 7.00	Cc1cc(-c2ccn3nc(N)c(C(=O)N[C@@H]4CCNC4=O)c3n2)cc2c1C(=O)N([C@@H](C)C1CC1)C2 [Example 283]
< 6.00	> 7.00	Cc1cc(-c2ccn3nc(N)c(C(=O)N[C@H]4c5ccccc5C[C@H]4O)c3n2)cc2c1C(=O)N([C@@H](C)C1CC1)C2 [Example 284]
< 6.00	> 7.00	Cc1cc(-c2ccn3nc(N)c(C(=O)N[C@@H]4CCOc5ccccc54)c3n2)cc2c1C(=O)N([C@@H](C)C1CC1)C2 [Example 285]
< 6.00	6.00 to 7.00	Cc1cc(-c2ccn3nc(N)c(C(=O)N[C@H](C(N)=O)c4ccccc4)c3n2)cc2c1C(=O)N([C@@H](C)C1CC1)C2 [Example 286]
6.00 to 7.00	6.00 to 7.00	Cc1cc(-c2ccn3nc(N)c(C(=O)NC(C)C4COC4)c3n2)cc2c1C(=O)N([C@@H](C)C1CC1)C2 (stereo partly shown) [Example 287]
< 6.00	6.00 to 7.00	Cc1cc(-c2ccn3nc(N)c(C(=O)N4CCCC4CO)c3n2)cc2c1C(=O)N(C(C)C1CC1)C2 (stereo not shown) [Example 288]
< 6.00	6.00 to 7.00	Cc1cc(-c2ccn3nc(N)c(C(=O)N4CCCC4CO)c3n2)cc2c1C(=O)N(C(C)C1CC1)C2 (stereo not shown) [Example 289]
